US6586173B2, “Methods for the detection of amino acid decarboxylases” (priority 1999, dated 2003)
“And” between values parts separate entries of the source, which are not always exact repeats. Equal entries are not always repeated. Where two headings read alike, the source gives them in different places. No end group written: not given here. *: point of attachment. AMC = Cc1cc(=O)oc2cc(N*)ccc12

What was measured:
[1] = tested on: Di-ADC; assay: Effect of inhibitors on cleavage of H-Phe-AMC by Di-ADC (D. immitis L3/L4 ES); assay type: biochemical, Dirofilaria immitis
[2] = tested on: D. immitis L3 larvae; assay: Larval culture assay, molting of L3 larvae counted by shed cuticles; assay type: cell-based, Dirofilaria immitis
[3] = tested on: Phe-DC; assay: Inhibitor assay with commercially prepared Phe-DC as enzyme source; assay type: biochemical
[4] = target: T1, Tyr-DC (Enterococcus faecalis, UniProt P0DTQ4); assay: Inhibitor assay with commercially prepared Tyr-DC as enzyme source; assay type: biochemical
T1 sequence (P0DTQ4 1-620): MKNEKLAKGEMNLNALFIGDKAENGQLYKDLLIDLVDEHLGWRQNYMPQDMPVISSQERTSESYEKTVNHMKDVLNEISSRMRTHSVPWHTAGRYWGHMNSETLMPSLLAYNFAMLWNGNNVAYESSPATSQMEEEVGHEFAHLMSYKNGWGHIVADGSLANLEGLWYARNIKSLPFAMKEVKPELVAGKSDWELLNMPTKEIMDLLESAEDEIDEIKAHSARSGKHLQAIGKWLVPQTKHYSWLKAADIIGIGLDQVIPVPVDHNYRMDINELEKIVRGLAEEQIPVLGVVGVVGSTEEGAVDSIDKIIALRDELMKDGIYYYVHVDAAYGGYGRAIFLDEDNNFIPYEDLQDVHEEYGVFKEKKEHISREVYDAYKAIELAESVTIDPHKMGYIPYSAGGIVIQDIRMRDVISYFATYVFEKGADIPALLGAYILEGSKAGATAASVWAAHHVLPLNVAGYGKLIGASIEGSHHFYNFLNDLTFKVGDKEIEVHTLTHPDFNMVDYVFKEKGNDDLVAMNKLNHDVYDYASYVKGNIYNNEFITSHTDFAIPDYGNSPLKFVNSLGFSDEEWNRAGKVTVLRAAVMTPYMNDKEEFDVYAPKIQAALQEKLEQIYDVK

[5] = tested on: D. immitis L3/L4 ES; assay type: biochemical, Dirofilaria immitis; conditions: pH 7.5
[6] = tested on: Di-ADC; assay: Enzyme kinetics of Di-ADC with AMC substrates (fluorimetric assay); assay type: biochemical, Dirofilaria immitis; conditions: substrate 0.0016 to 0.2 mM, double-reciprocal plot
[7] = tested on: Phe-DC; assay: Enzyme kinetics of Phe-DC with AMC substrates (fluorimetric assay); assay type: biochemical; conditions: substrate 0.0016 to 0.2 mM, double-reciprocal plot
Description: E. Enzyme kinetics, as measured by Michaelis constant (Km) and maximal velocity (Vmax), can be used to characterize the activity of an enzyme towards a given substrate under defined conditions. Enzymatic reactions were performed under the fluorimetric assay conditions described in Example 1 using Di-ADC and commercially prepared Phe-DC as the enzymes and H-Phe-AMC, H-Tyr-AMC and H-Trp-AMC as the substrates. One μL of purified adult Di-ADC, prepared as described in Example 2 through the gel filtration chromatography step, or 80 micro units (μU) (11.4 μg) of Phe-DC were incubated with each substrate at substrate concentrations ranging from 0.0016 to 0.2 mM. Each reaction was carried out in duplicate in PBS reaction buffer and monitored using the fluorimetric method described in Example 1. The values of apparent Km and Vm, of Di-ADC and Phe-DC for the substrates H-Phe-AMC, H-Tyr-AMC and H-Trp-AMC were calculated from a double-reciprocal plot of 1/v against 1/[substrate].

[8] = tested on: phenylalanine decarboxylase (Phe-DC); assay: Substrate specificity assay on commercially prepared Phe-DC; assay type: biochemical; conditions: as Example 1
[9] = target: T2, tyrosine decarboxylase (Tyr-DC) (Enterococcus faecalis, UniProt P0DTQ4); assay: Substrate specificity assay on commercially prepared Tyr-DC; assay type: biochemical; conditions: as Example 1
T2 sequence (P0DTQ4 1-620): T1 sequence (P0DTQ4 1-620)

[10] = tested on: Di-ADC; assay: Carbon dioxide release on decarboxylation of L-phenylalanine by Di-ADC (INFINITY CO2 kit); assay type: biochemical, Dirofilaria immitis; conditions: 5 mM L-phenylalanine, 37° C., 45 minutes
[11] = tested on: Phe-DC; assay: Carbon dioxide release on decarboxylation of L-phenylalanine by Phe-DC (control reaction); assay type: biochemical; conditions: 375 U Phe-DC
[12] = tested on: Di-ADC; assay: Formation of dopamine from dopa by Di-ADC; assay type: biochemical, Dirofilaria immitis; conditions: 10 μl Di-ADC, 0.5 mM L-dopa, 37° C., 30 minutes
[13] = tested on: Phe-DC; assay: Formation of dopamine from dopa by Phe-DC; assay type: biochemical; conditions: 172 μU Phe-DC, 0.5 mM L-dopa, 37° C., 30 minutes
[14] = compared with inhibition of Di-ADC

O=c1oc(Cl)c(Cl)c2ccccc12 [3,4-DCI, 3,4-Dichioroisocoumarin]
inhibition of Di-ADC activity relative to Phe-DC or Tyr-DC activity ([1]; comparison between enzymes): more strongly
sensitivity of the enzyme activity (H-Phe-AMC cleavage) to inhibitor ([1]; inhibitor concentrations of Table II, pre-incubated 30 minutes at 37° C.): sensitive
% Inhibition of molting of L3 larvae ([2]; 0.001 mM, 3 days culture): 28.6%
% Inhibition of molting of L3 larvae ([2]; 0.01 mM, 3 days culture): 40.9%
% Inhibition of molting of L3 larvae ([2]; 0.1 mM, 3 days culture): 100%
inhibition of the molting process (in words) ([2]; final concentration of 0.1 mM): completely inhibited the molting process

NCCc1c[nH]c2ccc(O)cc12 [5-HT, 5-hydroxytryptamine]
inhibition of Phe-DC activity [3, 14]: at levels similar to the level that each inhibited Di-ADC
inhibition of Tyr-DC activity [4, 14]: at levels similar to the level that each inhibited Di-ADC

N=C(N)c1ccc(CS(=O)(=O)F)cc1 [APMSF]
% Inhibition of molting of L3 larvae [2]: 19.7% and 24.2% and 14.1%
inhibition of the molting of L3 to L4 (in words) [2]: unable to completely inhibit the molting

O=C(O)c1cc[c]([Hg][Cl])cc1 [CMBA, p-chloromercuribenzoic acid]
inhibition of Phe-DC activity [3]: at levels similar to the level that each inhibited Di-ADC
inhibition of Tyr-DC activity [4]: at levels similar to the level that each inhibited Di-ADC

Cc1cc(=O)oc2cc(NC(=O)[C@H](Cc3ccccc3)NC(=O)CCCC(=O)O)ccc12 [Glutaryl—Phe—AMC]
D. immitis L3/L4 ES Activity (cleavage of substrate) [5]: No

Cc1cc(=O)oc2cc(NC(=O)[C@H](C)N)ccc12 [H—Ala—AMC]
D. immitis L3/L4 ES Activity (cleavage of substrate) [5]: No

Cc1cc(=O)oc2cc(NC(=O)[C@@H](N)CCCN=C(N)N)ccc12 [H—Arg—AMC]
D. immitis L3/L4 ES Activity (cleavage of substrate) [5]: No

Cc1cc(=O)oc2cc(NC(=O)[C@@H](N)CCC(=O)O)ccc12 [H—Glu—AMC]
D. immitis L3/L4 ES Activity (cleavage of substrate) [5]: No

Cc1cc(=O)oc2cc(NC(=O)CN)ccc12 [H—Gly—AMC]
D. immitis L3/L4 ES Activity (cleavage of substrate) [5]: No

Cc1cc(=O)oc2cc(NC(=O)[C@@H](N)Cc3cnc[nH]3)ccc12 [H—His—AMC]
D. immitis L3/L4 ES Activity (cleavage of substrate) [5]: No

Cc1cc(=O)oc2cc(NC(=O)[C@@H](N)CC(C)C)ccc12 [H—Leu—AMC]
D. immitis L3/L4 ES Activity (cleavage of substrate) [5]: No

Cc1cc(=O)oc2cc(NC(=O)[C@@H](N)CCCCN)ccc12 [H—Lys—AMC]
D. immitis L3/L4 ES Activity (cleavage of substrate) [5]: No

CSCC[C@H](N)C(=O)Nc1ccc2ccccc2c1 [H—Met—NHNap]
D. immitis L3/L4 ES Activity (cleavage of substrate) [5]: No

Cc1cc(=O)oc2cc(NC(=O)[C@@H](N)Cc3ccccc3)ccc12 [H—Phe—AMC]
D. immitis L3/L4 ES Activity (cleavage of substrate) [5]: Yes
Km [6]: 32.1 µM
Vmax [6]: 0.234 pmol/mg/min
Km [7]: 23.1 µM
Vmax [7]: 0.619 pmol/mg/min
cleavage of substrate by Phe-DC [8]: cleave
cleavage of substrate by Tyr-DC [9]: cleave

Cc1cc(=O)oc2cc(NC(=O)[C@@H]3CCCN3)ccc12 [H—Pro—AMC]
D. immitis L3/L4 ES Activity (cleavage of substrate) [5]: No

Cc1cc(=O)oc2cc(NC(=O)C(N)CO)ccc12 (stereo not shown) [H—Ser—AMC]
D. immitis L3/L4 ES Activity (cleavage of substrate) [5]: No

Cc1cc(=O)oc2cc(NC(=O)[C@@H](N)Cc3c[nH]c4ccccc34)ccc12 [H—Trp—AMC]
D. immitis L3/L4 ES Activity (cleavage of substrate) [5]: Yes
Km [6]: 29.1 µM
Vmax [6]: 0.140 pmol/mg/min
Km [7]: 22.9 µM
Vmax [7]: 0.703 pmol/mg/min
cleavage of substrate by Phe-DC [8]: cleave
cleavage of substrate by Tyr-DC [9]: cleave

Cc1cc(=O)oc2cc(NC(=O)[C@@H](N)Cc3ccc(O)cc3)ccc12 [H—Tyr—AMC]
D. immitis L3/L4 ES Activity (cleavage of substrate) [5]: Yes
Km [6]: 35.1 µM
Vmax [6]: 0.152 pmol/mg/min
Km [7]: 72.3 µM
Vmax [7]: 0.339 pmol/mg/min
cleavage of substrate by Phe-DC [8]: cleave
cleavage of substrate by Tyr-DC [9]: cleave

N[C@@H](Cc1ccccc1)C(=O)O [L-phenylalanine]
formation of CO2 ([10]; 5 μL Di-ADC): 0.7 mM
formation of CO2 ([10]; 10 μL Di-ADC): 0.38 mM
formation of CO2 ([10]; 20 μl Di-ADC): 0.4 mM
formation of CO2 [11]: 0.27 mM

O=S(=O)(F)Cc1ccccc1 [PMSF, Phenylmethane-7-sulfonyl fluoride]
inhibition of Di-ADC activity relative to Phe-DC or Tyr-DC activity [1]: more strongly
sensitivity of the enzyme activity (H-Phe-AMC cleavage) to inhibitor [1]: sensitive
% Inhibition of molting of L3 larvae [2]: 32.3% and 47.3% and 29.8%
inhibition of the molting of L3 to L4 (in words) [2]: unable to completely inhibit the molting

Cl.NCCc1ccc(S(=O)(=O)F)cc1 [Pefabloc]
inhibition of Phe-DC activity [3]: at levels similar to the level that each inhibited Di-ADC
sensitivity of the enzyme activity (H-Phe-AMC cleavage) to inhibitor [1]: sensitive
effect on molting (in words) [2]: no apparent effect on molting
effect on the molt (in words) [2]: inhibited the molt completely
inhibition of the molting process (in words) [2]: completely inhibited the molting process
inhibition of Tyr-DC activity [4]: at levels similar to the level that each inhibited Di-ADC

N[C@@H](Cc1ccc(O)c(O)c1)C(=O)O [dopa, L-dopa]
dopamine formed [12]: 2.74 nmol
dopamine formed [13]: 9.4 nmol

Ala-Ala-Phe-{AMC}
D. immitis L3/L4 ES Activity (cleavage of substrate) [5]: No
